This is an account of results in publication doi:10.1101/2025.03.24.644576v1 (biorxiv, 2025).

Test [1] concerns the target T1, AmRDL receptor (Apis mellifera, UniProt A0A8U0Y4W2, F191A).
T1 sequence (A0A8U0Y4W2 19-476 F191A): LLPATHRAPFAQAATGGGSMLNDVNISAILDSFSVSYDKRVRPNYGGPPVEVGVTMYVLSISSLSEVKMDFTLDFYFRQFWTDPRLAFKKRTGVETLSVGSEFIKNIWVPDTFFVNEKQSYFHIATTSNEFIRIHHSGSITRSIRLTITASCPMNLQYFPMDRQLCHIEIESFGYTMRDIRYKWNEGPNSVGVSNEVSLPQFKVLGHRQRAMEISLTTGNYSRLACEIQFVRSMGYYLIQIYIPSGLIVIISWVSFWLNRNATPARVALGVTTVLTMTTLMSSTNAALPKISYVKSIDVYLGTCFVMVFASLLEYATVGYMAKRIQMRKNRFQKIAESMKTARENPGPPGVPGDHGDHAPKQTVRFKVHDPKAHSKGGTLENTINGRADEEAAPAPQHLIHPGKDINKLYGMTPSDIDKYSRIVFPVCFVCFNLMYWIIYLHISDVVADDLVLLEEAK
Briefly: two-electrode voltage clamp, Xenopus oocytes. Format: cell-based.

The target in test [2] is T2, AmRDL receptor (Apis mellifera, UniProt A0A8U0Y4W2).
T2 sequence (A0A8U0Y4W2 19-476): T1 sequence (A0A8U0Y4W2 19-476 F191A)
Briefly: two-electrode voltage clamp, Xenopus oocytes. Format: cell-based.

On to `NCCCC(=O)O` [GABA], for which the 50% effective concentration (EC50) on AmRDL receptor [1] came to 1000 µM; at AmRDL receptor [2] it was 10 µM.
